Laboratory results taken from PubChem BioAssay (NCI).
Where “and” joins values, the source holds several entries; their conditions need not be identical. Equal values may be shown once.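 Interpolation was linear, between the two tested concentrations surrounding the appropriate level; five concentrations were tested over 48 hours in 96-well plates. GI50: concentration for 50% inhibition of growth. TGI: concentration producing complete growth inhibition.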

Legend:
Experiment in all cases: NCI anticancer screen, dose series, 48 h
EKVX NSCLC = test system: EKVX NSCLC
CAKI-1 renal = test system: CAKI-1 renal
HS 578T breast = test system: HS 578T breast
UACC-257 melanoma = test system: UACC-257 melanoma
DU-145 prostate = test system: DU-145 prostate
HCC-2998 colon = test system: HCC-2998 colon
NCI/ADR-RES ovarian = test system: NCI/ADR-RES ovarian
MCF7 breast = test system: MCF7 breast
HT29 colon = test system: HT29 colon
KM12 colon = test system: KM12 colon

Structure (SMILES) | GI50 (EKVX NSCLC) | TGI (EKVX NSCLC) | GI50 (CAKI-1 renal) | TGI (CAKI-1 renal) | TGI (HS 578T breast) | GI50 (UACC-257 melanoma) | TGI (UACC-257 melanoma) | GI50 (DU-145 prostate) | TGI (DU-145 prostate) | GI50 (HCC-2998 colon) | TGI (HCC-2998 colon) | TGI (NCI/ADR-RES ovarian) | GI50 (MCF7 breast) | GI50 (HT29 colon) | TGI (HT29 colon) | GI50 (KM12 colon) | GI50 (HS 578T breast) | GI50 (NCI/ADR-RES ovarian) | TGI (MCF7 breast) | TGI (KM12 colon)
CC(C)[C@]12O[C@H]1[C@@H]1O[C@]13[C@]1(O[C@H]1C[C@H]1C4=C(CC[C@@]13C)C(=O)OC4)[C@@H]2O | 0.0166 µM | 0.0994 µM and 0.283 µM | 0.0111 µM and < 0.01 µM | > 100 µM | 0.0554 µM and 0.0718 µM | 0.0101 µM and 0.0148 µM | 0.0341 µM and 0.0476 µM | 0.0163 µM | > 100 µM | 0.0212 µM | 0.0912 µM and 0.761 µM | 0.0922 µM | < 0.01 µM | 0.029 µM | > 100 µM | 0.102 µM |  |  |  | 
CC1(C)N=C(N)N=C(N)N1c1cccc(CCCCc2cccc(S(=O)(=O)F)c2)c1 | 19.2 µM | > 100 µM | 20.3 µM | > 100 µM | > 100 µM | 2.79 µM | 36.6 µM | 1.17 µM | > 100 µM | 3.17 µM | > 56.3 µM | > 100 µM | 0.485 µM | 0.26 µM | > 100 µM | 0.474 µM | 51.1 µM | > 79.2 µM | 24.9 µM | 14.2 µM
COc1ccc2[nH]c(=O)c3c4ccccc4cn3c2c1 | 0.878 µM | 12.4 µM | 0.169 µM | 0.839 µM | 0.775 µM | 2.67 µM | 11.1 µM | 0.604 µM | 3.63 µM | 0.332 µM | 0.807 µM | 1.29 µM | 0.153 µM | 0.375 µM | 1.44 µM | 0.323 µM | 0.25 µM | 0.308 µM | 0.969 µM | 1.65 µM
COc1ccc(-c2cc(-c3cc(Cl)ccc3Cl)nc3n[nH]c(N)c23)cc1 | 34.6 µM | > 100 µM | 4.05 µM | 24.4 µM | 87 µM | 70.4 µM | > 100 µM | 36 µM | > 100 µM | 15.2 µM | 34.6 µM | > 100 µM | 3.45 µM | 6.32 µM | > 100 µM | 8.26 µM | 25.3 µM | 18 µM | > 100 µM | 83.6 µM
CCOC(=O)c1ccc2[nH]c(-c3ccc(S(=O)(=O)F)cc3)cc(=O)c2c1 |  | > 100 µM |  | > 100 µM | > 100 µM |  | > 100 µM |  | > 100 µM |  | 40 µM | > 100 µM |  |  | > 100 µM |  |  |  | > 100 µM | > 100 µM
CC[C@]12CCCN3CCc4c(n(c5ccccc45)C(=O)C1)[C@@H]32 |  | > 100 µM |  | > 100 µM | 49.1 µM |  | > 100 µM |  | > 92.7 µM |  | 19.4 µM | > 34.5 µM |  |  | > 52.7 µM |  |  |  | > 100 µM | > 100 µM
Nc1c(C(=O)c2cccc(CCCN3CCOCC3)c2)cnn1-c1ccc(F)cc1 |  |  | > 25 µM | > 25 µM | > 25 µM | > 25 µM | > 25 µM | > 25 µM | > 25 µM | > 25 µM | > 25 µM | > 25 µM | > 25 µM | > 25 µM | > 25 µM | > 25 µM | > 25 µM | > 25 µM | > 25 µM | > 25 µM
C=C1C(=O)O[C@H]2[C@H]1CC/C(CNC(=O)Cc1c[nH]c3ccccc13)=C\CC[C@@]1(C)O[C@@H]21 | 10.6 µM | 22.4 µM | 4.77 µM | 17.1 µM | 45.5 µM |  |  | 0.834 µM | 12.3 µM | 4 µM | 15.5 µM | 65.6 µM | 0.404 µM | 0.451 µM | 11.1 µM | 8.44 µM | 11.9 µM | 19 µM | 3.3 µM | 21.6 µM
Cc1nc(-c2cccc(Nc3nc(-c4ccc(Cl)cc4)cs3)c2)cs1 | 8.6 µM | 17.2 µM | 11.8 µM | 24.6 µM | 34.9 µM | 8.76 µM | 18.1 µM | 9.73 µM | 18.4 µM |  |  | 12.2 µM | 14.7 µM |  |  | 8.4 µM | 14.1 µM | 5.14 µM | 43.7 µM | 20 µM
N=C(N)c1ccc(OCc2cccc(COc3ccc(C(=N)N)cc3)c2)cc1 | 2.85 µM | 8.25 µM | 11.4 µM | 27.2 µM | 12.5 µM | 14.4 µM | 84.8 µM | 6.12 µM | 20.3 µM | 11.4 µM | 33.2 µM | > 100 µM | 4.5 µM | 7.64 µM | > 100 µM |  | 4 µM | > 100 µM | 14.9 µM | 
Cc1ccc2c(c1)C(C)Cc1c(ncnc1-n1cnc3ccccc31)N2C (centres undefined) | 0.511 µM | 17.5 µM | 0.337 µM | 17.8 µM | 28.9 µM |  |  | 0.529 µM | 14.4 µM | 1.24 µM | 13.6 µM | 14.8 µM | 0.0986 µM | 0.34 µM | 12.1 µM | 0.434 µM | 0.376 µM | 0.275 µM | 13.1 µM | 16.6 µM
O=C(O)CCNc1ccccc1C(=O)O |  | > 100 µM |  | > 100 µM | > 100 µM |  | > 100 µM |  | > 100 µM |  |  | > 100 µM |  |  | > 100 µM |  |  |  | > 100 µM | > 100 µM
O=C(NC1CCN(Cc2ccccc2)CC1)c1cc(-c2ccncc2)nc2ccc(Cl)cc12 |  |  | 5.43 µM | > 50.5 µM | 64 µM | 16.9 µM | 36.3 µM | 20.1 µM | 63.1 µM | 21.6 µM | > 91.1 µM | > 100 µM | 5.66 µM | 4.7 µM | 19.7 µM | 24.1 µM | 14.4 µM | 22.2 µM | 30.6 µM | > 100 µM
NCCNc1c2c(c(NCCN)c3c(CO)c[nH]c13)C(=O)c1ccccc1C2=O | 19.7 µM | 56.2 µM |  |  | 38.9 µM | 16.8 µM | 46 µM | 12 µM | > 100 µM | 7.14 µM | 52.3 µM | > 100 µM | 5.59 µM | 10.6 µM | > 100 µM | 17.3 µM | 3.27 µM | > 100 µM | 82 µM | > 100 µM
